Experimental findings from patent publication US20240336611A1 (Insilico Medicine IP Limited, priority 2021, published 2024) are described below.

pIC50: −log10 of the molar value.

T1 sequence (Q9UKE5 1-367): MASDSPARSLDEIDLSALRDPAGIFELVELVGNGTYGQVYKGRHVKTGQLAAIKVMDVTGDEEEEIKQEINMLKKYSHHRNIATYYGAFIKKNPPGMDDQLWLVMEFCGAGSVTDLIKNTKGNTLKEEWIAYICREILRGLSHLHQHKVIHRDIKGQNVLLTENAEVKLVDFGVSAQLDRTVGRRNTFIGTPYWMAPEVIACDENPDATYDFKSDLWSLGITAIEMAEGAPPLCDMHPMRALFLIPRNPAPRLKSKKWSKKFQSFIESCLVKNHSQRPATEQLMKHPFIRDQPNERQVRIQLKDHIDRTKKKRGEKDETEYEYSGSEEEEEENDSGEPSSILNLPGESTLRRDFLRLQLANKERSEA

This assay concerns the target T1, TNIK kinase [amino acid sequence (1-367), Invitrogen] (Homo sapiens, UniProt Q9UKE5).
T1 construct: purchased Invitrogen
Description: TNIK kinase inhibition assay (Z-lyte FRET-peptide). Format: biochemical. The note with it: 0.625 nM TNIK kinase, 2 μM Ser/Thr 7 peptide, 64 μM ATP, one hour at room temperature. The protocol:
Z-lyte assay kit was purchased from Invitrogen. A site-specific protease recognizes and cleaves non-phosphorylated FRET-peptides. Phosphorylation of FRET-peptides suppresses cleavage by protease and will maintain FRET from donor to acceptor.
5 μl of Development Reagent A solution was then added to cleave non-phosphorylated peptide with a dilution 1:65000 in Development Buffer B. The assay plate was incubated at room temperature for another one hour and then read in the Envision plate reader (PerkinElmer).
What is called pIC50 is the IC50 on a negative log10 scale, so that one unit is a factor of ten. With “2-(4-(4-fluorophenyl)-1-isopropyl-1H-imidazol-5-yl)-N-(5-((1R,5S)-8-methyl-8-azabicyclo[3.2.1]octan-3-yl)pyridin-2-yl)oxazole-4-carboxamide [Compound 62]”, the pIC50 is 6.82 to 7.92. As for `CC(C)n1cnc(-c2ccc(F)cc2)c1-c1cnc(C(=O)Nc2ccc(N3CCN(C)CC3)cc2)s1` [Compound 1, 5-(4-(4-fluorophenyl)-1-isopropyl-1H-imidazol-5-yl)-N-(4-(4-methylpiperazin-1-yl)phenyl)thiazole-2-carboxamide], the pIC50 is under 6.82. In turn, `CC(C)n1cnc(-c2ccc(F)cc2)c1-c1ncc(C(=O)Nc2ccc(N3CCN(C)CC3)cc2)s1` [Compound 3, 2-(4-(4-fluorophenyl)-1-isopropyl-1H-imidazol-5-yl)-N-(4-(4-methylpiperazin-1-yl)phenyl)thiazole-5-carboxamide] had a pIC50 of under 6.82. To `CC(C)n1cnc(-c2ccc(F)cc2)c1-c1csc(C(=O)Nc2ccc(N3CCN(C)CC3)cc2)n1` [Compound 4, 4-(4-(4-fluorophenyl)-1-isopropyl-1H-imidazol-5-yl)-N-(4-(4-methylpiperazin-1-yl)phenyl)thiazole-2-carboxamide] belongs 7.92 to 9.00.

As to `CN1CCN(c2ccc(NC(=O)c3c[nH]c(-c4c(-c5ccc(F)cc5)ncn4C4CC4)n3)cc2)CC1` [Compound 15, 3′-cyclopropyl-5′-(4-fluorophenyl)-N-(4-(4-methylpiperazin-1-yl)phenyl)-1H,3′H-[2,4′-biimidazole]-4-carboxamide], the pIC50 is 6.82 to 7.92. To `CC(C)n1cnc(-c2ccc(F)cc2)c1-c1nc(C(=O)Nc2ccc(N3CCN(C)CC3)c(F)c2)c[nH]1` [Compound 16, N-(3-fluoro-4-(4-methylpiperazin-1-yl)phenyl)-5′-(4-fluorophenyl)-3′-isopropyl-1H,3′H-[2,4′-biimidazole]-4-carboxamide] belongs 7.92 to 9.00. To `CC(C)n1cnc(-c2ccc(F)cc2)c1-c1nc(C(=O)Nc2ccc(N3CCN(C)CC3)c(F)c2F)c[nH]1` [Compound 17, N-(2,3-difluoro-4-(4-methylpiperazin-1-yl)phenyl)-5′-(4-fluorophenyl)-3′-isopropyl-1H,3′H-[2,4′-biimidazole]-4-carboxamide] belongs 7.92 to 9.00. The molecule `Cc1cc(NC(=O)c2cnc(-c3c(-c4ccc(F)cc4)ncn3C(C)C)[nH]2)ccc1N1CCN(C)CC1` [Compound 18, 5′-(4-fluorophenyl)-3′-isopropyl-N-(3-methyl-4-(4-methylpiperazin-1-yl)phenyl)-1H,3′H-[2,4′-biimidazole]-5-carboxamide] showed a pIC50 of 6.82 to 7.92.

`CC(C)n1cnc(-c2ccc(F)cc2)c1-c1ncc(C(=O)Nc2ccc(N3CCC4(CC3)CN(C)C4)cc2)[nH]1` [Compound 19, 5′-(4-fluorophenyl)-3′-isopropyl-N-(4-(2-methyl-2,7-diazaspiro[3.5]nonan-7-yl)phenyl)-1H,3′H-[2,4′-biimidazole]-5-carboxamide] showed a pIC50 of 7.92 to 9.00. With `CC(C)n1cnc(-c2ccc(F)cc2)c1-c1ncc(C(=O)Nc2ccc(N3CC4(CN(C)C4)C3)cc2)[nH]1` [Compound 20, 5′-(4-fluorophenyl)-3′-isopropyl-N-(4-(6-methyl-2,6-diazaspiro[3.3]heptan-2-yl)phenyl)-1H,3′H-[2,4′-biimidazole]-5-carboxamide] the figure was 7.92 to 9.00.

In turn, `CC(C)n1cnc(-c2ccc(F)cc2)c1-c1nc(C(=O)Nc2ccc(N3CCN(C)CC3)nc2)c[nH]1` [Compound 22, 5′-(4-fluorophenyl)-3′-isopropyl-N-(6-(4-methylpiperazin-1-yl)pyridin-3-yl)-1H,3′H-[2,4′-biimidazole]-4-carboxamide] gave a pIC50 of 6.82 to 7.92. Consider `CC(C)n1cnc(-c2ccc(F)cc2)c1-c1nc(C(=O)Nc2ccc(N3C[C@H]4CC[C@@H](C3)N4C)nc2)c[nH]1` [Compound 25, 5′-(4-fluorophenyl)-3′-isopropyl-N-(6-((1R,5S)-8-methyl-3,8-diazabicyclo[3.2.1]octan-3-yl)pyridin-3-yl)-1H,3′H-[2,4′-biimidazole]-4-carboxamide], for which the pIC50 was 7.92 to 9.00. With `CC(C)n1cnc(-c2ccc(F)cc2)c1-c1coc(C(=O)Nc2ccc(N3CCN(C)CC3)cc2F)n1` [Compound 27, N-(2-fluoro-4-(4-methylpiperazin-1-yl)phenyl)-4-(4-(4-fluorophenyl)-1-isopropyl-1H-imidazol-5-yl)oxazole-2-carboxamide] the figure was 6.82 to 7.92.

`CN1CCN(c2ccc(NC(=O)c3csc(-c4c(-c5ccc(F)cc5)nc5n4CCOC5)n3)nc2)CC1` [Compound 29, 2-(2-(4-fluorophenyl)-6,8-dihydro-5H-imidazo[2,1-c][1,4]oxazin-3-yl)-N-(5-(4-methylpiperazin-1-yl)pyridin-2-yl)thiazole-4-carboxamide] gave a pIC50 of 7.92 to 9.00. `CC(C)n1cnc(-c2ccc(F)cc2)c1-c1csc(C(=O)Nc2ccc(N3C[C@H]4CC[C@@H](C3)N4C)cn2)n1` [Compound 38, 4-(4-(4-fluorophenyl)-1-isopropyl-1H-imidazol-5-yl)-N-(5-((1R,5S)-8-methyl-3,8-diazabicyclo[3.2.1]octan-3-yl)pyridin-2-yl)thiazole-2-carboxamide]: the pIC50 was 7.92 to 9.00. To `CC(C)n1cnc(-c2ccc(F)cc2)c1-c1coc(C(=O)Nc2ccc(N3CC4CCC(C3)N4C)cn2)n1` [Compound 39, 4-(4-(4-fluorophenyl)-1-isopropyl-1H-imidazol-5-yl)-N-(5-(8-methyl-3,8-diazabicyclo[3.2.1]octan-3-yl)pyridin-2-yl)oxazole-2-carboxamide] belongs 6.82 to 7.92; to `CC(C)n1cnc(-c2ccc(F)cc2)c1-c1nc(C(=O)Nc2ncc(N3CCN(C)CC3)cn2)cs1` [Compound 46, 2-(4-(4-fluorophenyl)-1-isopropyl-1H-imidazol-5-yl)-N-(5-(4-methylpiperazin-1-yl)pyrimidin-2-yl)thiazole-4-carboxamide], under 6.82; to `CN1C2CCC1CN(c1ccc(NC(=O)c3c[nH]c(-c4c(-c5ccc(F)cc5)ncn4C4CC4)n3)nc1)C2` [Compound 47, 3′-cyclopropyl-5′-(4-fluorophenyl)-N-(5-(8-methyl-3,8-diazabicyclo[3.2.1]octan-3-yl)pyridin-2-yl)-1H,3′H-[2,4′-biimidazole]-4-carboxamide], 7.92 to 9.00. With `CN1[C@@H]2CC[C@H]1CN(c1ccc(NC(=O)c3c[nH]c(-c4c(-c5ccc(F)cc5)ncn4C4CCC4)n3)nc1)C2` [Compound 48, 3′-cyclobutyl-5′-(4-fluorophenyl)-N-(5-((1R,5S)-8-methyl-3,8-diazabicyclo[3.2.1]octan-3-yl)pyridin-2-yl)-1H,3′H-[2,4′-biimidazole]-4-carboxamide] the figure was 7.92 to 9.00; with `CN1C2CC1CN(c1ccc(NC(=O)c3c[nH]c(-c4c(-c5ccc(F)cc5)ncn4C4CC4)n3)nc1)C2` [Compound 49, 3′-cyclopropyl-5′-(4-fluorophenyl)-N-(5-(6-methyl-3,6-diazabicyclo[3.1.1]heptan-3-yl)pyridin-2-yl)-1H,3′H-[2,4′-biimidazole]-4-carboxamide], 6.82 to 7.92. To `CN1C2CC1CN(c1ccc(NC(=O)c3c[nH]c(-c4c(-c5ccc(F)cc5)ncn4C4CCC4)n3)nc1)C2` [Compound 50, 3′-cyclobutyl-5′-(4-fluorophenyl)-N-(5-(6-methyl-3,6-diazabicyclo[3.1.1]heptan-3-yl)pyridin-2-yl)-1H,3′H-[2,4′-biimidazole]-4-carboxamide] belongs 7.92 to 9.00; to `CC(C)n1cnc(-c2ccc(F)cc2)c1-c1nc(C(=O)Nc2ccc(C3CCN(C)CC3)cn2)c[nH]1` [Compound 52, 5′-(4-fluorophenyl)-3′-isopropyl-N-(5-(1-methylpiperidin-4-yl)pyridin-2-yl)-1H,3′H-[2,4′-biimidazole]-4-carboxamide], 7.92 to 9.00. `CC(C)n1cnc(-c2ccc(F)cc2)c1-c1nc(C(=O)Nc2ccc(C3C[C@H]4CC[C@@H](C3)N4C)cn2)cs1` (stereo partly drawn) [Compound 60, 2-(4-(4-fluorophenyl)-1-isopropyl-1H-imidazol-5-yl)-N-(5-((1R,5S)-8-methyl-8-azabicyclo[3.2.1]octan-3-yl)pyridin-2-yl)thiazole-4-carboxamide] had a pIC50 of 7.92 to 9.00. With `O=C(Nc1ccc(N2CCOCC2)cn1)c1c[nH]c(-c2c(-c3ccc(F)cc3)ncn2C2CC(F)(F)C2)n1` [Compound 67, 3′-(3,3-difluorocyclobutyl)-5′-(4-fluorophenyl)-N-(5-morpholinopyridin-2-yl)-1H,3′H-[2,4′-biimidazole]-4-carboxamide] the figure was 6.82 to 7.92. In turn, `O=C(Nc1ccc(N2CCC2)cn1)c1coc(-c2c(-c3ccc(F)cc3)ncn2C2CC(F)(F)C2)n1` [Compound 69, N-(5-(azetidin-1-yl)pyridin-2-yl)-2-(1-(3,3-difluorocyclobutyl)-4-(4-fluorophenyl)-1H-imidazol-5-yl)oxazole-4-carboxamide] gave a pIC50 of under 6.82. With `O=C(Nc1ccc(N2CCOCC2)cn1)c1coc(-c2c(-c3ccc(F)cc3)ncn2C2COC2)n1` [Compound 71, 2-(4-(4-fluorophenyl)-1-(oxetan-3-yl)-1H-imidazol-5-yl)-N-(5-morpholinopyridin-2-yl)oxazole-4-carboxamide] the figure was under 6.82.

With `O=C(Nc1ccc(N2CCC2)cn1)c1c[nH]c(-c2c(-c3ccc(F)cc3)ncn2C2CC(F)(F)C2)n1` [Compound 73, N-(5-(azetidin-1-yl)pyridin-2-yl)-3′-(3,3-difluorocyclobutyl)-5′-(4-fluorophenyl)-1H,3′H-[2,4′-biimidazole]-4-carboxamide], the negative logarithm of the IC50 (pIC50) is 6.82 to 7.92. With `O=C(Nc1ccc(N2CCC2)cn1)c1csc(-c2c(-c3ccc(F)cc3)ncn2C2COC2)n1` [Compound 75, N-(5-(azetidin-1-yl)pyridin-2-yl)-2-(4-(4-fluorophenyl)-1-(oxetan-3-yl)-1H-imidazol-5-yl)thiazole-4-carboxamide] the figure was 7.92 to 9.00.
